Structures are written as SMILES.

The test is described as follows: in vitro "sniff test" model of deodorant effectiveness using human sweat incubated at 37° C. The following applies: average odor intensity rating, scores from 1=weak odor to 8=very strong odor, single ingredient. On the procedure:
The deodorant effectiveness of different KH2PO4/MgO mixtures at different molar ratios was studied in vitro in a “sniff test” model using human sweat incubated at 37° C.

For `[O]=[Mg]` [MgO, magnesium oxide], the Odor intensity was 1. Then `O=P([O-])(O)O.[K+]` [KH2PO4, potassium dihydrogen phosphate], with 8.
